According to patent publication US8445501B2, “Substituted 7-carboxamido-pyrrolo[3,2-d]pyrimidines” (Takeda GmbH, priority 2008, dated 2013):
pIC50: −log10 of the molar value.

Target: T1, human PDE5 (Homo sapiens, UniProt O76074)
T1 construct: from tissue; host or cells: platelets from fresh blood of human donors (lysate, 10,000 g supernatant)
Experiment: Inhibition of the type 5 phosphodiesterase (PDE5) activity, modified SPA test with platelet lysate
Type: biochemical
Conditions: PDE5 from human platelet lysate, 0.5 μM cGMP
Summary of the method: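 Human platelet lysate (10,000 g supernatant) as PDE5 source in SPA with 0.5 μM cGMP plus [3H]cGMP tracer, pH 7.4, 5 mM Mg2+, 1 μM motapizone and 10 nM PDE2 inhibitor; 10–20% conversion. 5 min preincubation, 15 min at 37 °C, stopped with SPA beads/IBMX. IC50 by non-linear regression.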

Structure (SMILES) | pIC50
CC(=O)N1CCC(NC(=O)c2c[nH]c3c(-c4cc(F)ccc4OCC4CC4)ncnc23)CC1 [Example 84, 4-(2-Cyclopropylmethoxy-5-fluoro-phenyl)-5H-pyrrolo[3,2-d]pyrimidine-7-carboxylic acid (1-acetyl-piperidin-4-yl)-amide] | 8.53
O=CN1CC[C@@H](NC(=O)c2c[nH]c3c(-c4c(OCC5CC5)ccc5c4OCO5)ncnc23)C1 [Example 14, 4-(5-Cyclopropylmethoxy-benzo[1,3]dioxol-4-yl)-5H-pyrrolo[3,2-d]pyrimidine-7-carboxylic acid ((R)-1-formyl-pyrrolidin-3-yl)-amide] | 8.86
COCC(=O)N1CCC(NC(=O)c2c[nH]c3c(-c4ccc(F)cc4OCC4CC4)ncnc23)CC1 [Example 83, 4-(2-Cyclopropylmethoxy-4-fluoro-phenyl)-5H-pyrrolo[3,2-d]pyrimidine-7-carboxylic acid [1-(2-methoxy-acetyl)piperidin-4-yl]-amide] | 8.29
CCC(=O)N1CC[C@@H](NC(=O)c2c[nH]c3c(-c4cc(F)c(OC)cc4OCC4CC4)ncnc23)C1 [Example 118, 4-(2-Cyclopropylmethoxy-5-fluoro-4-methoxy-phenyl)-5H-pyrrolo[3,2-d]pyrimidine-7-carboxylic acid ((R)-1-propionyl-pyrrolidin-3-yl)-amide] | 9.30
CCOC(=O)N[C@H]1CC[C@H](NC(=O)c2c[nH]c3c(-c4ccc(F)cc4OCC4CC4)ncnc23)CC1 [Example 80, trans-(4-{[4-(2-Cyclopropylmethoxy-4-fluoro-phenyl)-5H-pyrrolo[3,2-d]pyrimidine-7-carbonyl]-amino}-cyclohexyl)-carbamic acid ethyl ester] | 8.85
COCC(=O)N[C@H]1CC[C@@H](NC(=O)c2c[nH]c3c(-c4ccc(F)cc4OCC4CC4)ncnc23)CC1 [Example 76, cis-4-(2-Cyclopropylmethoxy-4-fluoro-phenyl)-5H-pyrrolo[3,2-d]pyrimidine-7-carboxylic acid [4-(2-methoxy-acetylamino)-cyclohexyl]-amide] | 8.62
COCC(=O)N[C@H]1CC[C@@H](NC(=O)c2c[nH]c3c(-c4c(OCC5CC5)ccc5c4OCO5)ncnc23)CC1 [Example 9, cis-4-(5-Cyclopropylmethoxy-benzo[1,3]dioxol-4-yl)-5H-pyrrolo[3,2-d]pyrimidine-7-carboxylic acid [4-(2-methoxy-ethanoylamino)-cyclohexyl]-amide] | 8.94
CC(=O)N1CCC(NC(=O)c2c[nH]c3c(-c4ccccc4OCC4CC4)ncnc23)CC1 [Example 94, 4-(2-Cyclopropylmethoxy-phenyl)-5H-pyrrolo[3,2-d]pyrimidine-7-carboxylic acid (1-acetyl-piperidin-4-yl)-amide] | 8.06
O=C(N[C@H]1CC[C@H](NC(=O)C2(O)CC2)CC1)c1c[nH]c2c(-c3ccccc3OCC3CC3)ncnc12 [Example 226, trans-4-(2-Cyclopropylmethoxy-phenyl)-5H-pyrrolo[3,2-d]pyrimidine-7-carboxylic acid {4-[(1-hydroxy-cyclopropanecarbonyl)-amino]-cyclohexyl}-amide] | 8.47
CCCCOc1ccc2c(c1-c1ncnc3c(C(=O)NC4CCCN(C(=O)COC)C4)c[nH]c13)OCO2 (stereo not drawn) [Example 149, 4-(5-Butoxy-benzo[1,3]dioxol-4-yl)-5H-pyrrolo[3,2-d]pyrimidine-7-carboxylic acid [1-(2-methoxy-acetyl)piperidin-3-yl]-amide] | 9.53
CCCCOc1ccc2c(c1-c1ncnc3c(C(=O)NC4CCN(C(=O)[C@H](C)O)CC4)c[nH]c13)OCO2 [Example 253, 4-(5-Butoxy-benzo[1,3]dioxol-4-yl)-5H-pyrrolo[3,2-d]pyrimidine-7-carboxylic acid [1-((S)-2-hydroxy-propionyl)-piperidin-4-yl]-amide] | 9.77
O=CN1CCC(CNC(=O)c2c[nH]c3c(-c4c(OCC5CC5)ccc5c4OCO5)ncnc23)C1 (stereo not drawn) [Example 32, 4-(5-Cyclopropylmethoxy-benzo[1,3]dioxol-4-yl)-5H-pyrrolo[3,2-d]pyrimidine-7-carboxylic acid (1-formyl-pyrrolidin-3-ylmethyl)-amide] | 8.96

The remaining lines, values ahead:

pIC50 | Structure (SMILES)
9.70 | COc1cc(-c2ncnc3c(C(=O)N[C@@H]4CCCN(C(=O)CO)C4)c[nH]c23)c(OCC2CC2)cc1F [Example 229, 4-(2-Cyclopropylmethoxy-4-fluoro-5-methoxy-phenyl)-5H-pyrrolo[3,2-d]pyrimidine-7-carboxylic acid [(R)-1-(2-hydroxy-acetyl)piperidin-3-yl]-amide]
9.34 | COCC(=O)N1CCC(CNC(=O)c2c[nH]c3c(-c4c(OCC5CC5)ccc5c4OCO5)ncnc23)CC1 [Example 26, 4-(5-Cyclopropylmethoxy-benzo[1,3]dioxol-4-yl)-5H-pyrrolo[3,2-d]pyrimidine-7-carboxylic acid [1-(2-methoxy-ethanoyl)-piperidin-4-ylmethyl]-amide]
9.98 | CCC(=O)N1CCC[C@@H](NC(=O)c2c[nH]c3c(-c4cc(F)c(OC)cc4OCC4CC4)ncnc23)C1 [Example 111, 4-(2-Cyclopropylmethoxy-5-fluoro-4-methoxy-phenyl)-5H-pyrrolo[3,2-d]pyrimidine-7-carboxylic acid ((R)-1-propionyl-piperidin-3-yl)-amide]
9.31 | COCC(=O)N1CCC(NC(=O)c2c[nH]c3c(-c4c(OCC5CCC5)ccc5c4OCO5)ncnc23)CC1 [Example 131, 4-(5-Cyclobutylmethoxy-benzo[1,3]dioxol-4-yl)-5H-pyrrolo[3,2-d]pyrimidine-7-carboxylic acid [1-(2-methoxy-ethanoyl)-piperidin-4-yl]amide]
9.40 | CCOC(=O)N1CCOC(CNC(=O)c2c[nH]c3c(-c4c(OCC5CC5)ccc5c4OCO5)ncnc23)C1 (stereo not drawn) [Example 38, 2-({[4-(5-Cyclopropylmethoxy-benzo[1,3]dioxol-4-yl)-5H-pyrrolo[3,2-d]pyrimidine-7-carbonyl]-amino}-methyl)-morpholine-4-carboxylic acid ethyl ester]
9.46 | CCOC(=O)N1CCC(CNC(=O)c2c[nH]c3c(-c4c(OCC5CC5)ccc5c4OCO5)ncnc23)C1 (stereo not drawn) [Example 34, 3-({[4-(5-Cyclopropylmethoxy-benzo[1,3]dioxol-4-yl)-5H-pyrrolo[3,2-d]pyrimidine-7-carbonyl]-amino}-methyl)-pyrrolidine-1-carboxylic acid ethyl ester]
9.74 | O=C(NC1CCN(C(=O)C2(O)CC2)CC1)c1c[nH]c2c(-c3c(OCC4CC4)ccc4c3OCO4)ncnc12 [Example 179, 4-(5-Cyclopropylmethoxy-benzo[1,3]dioxol-4-yl)-5H-pyrrolo[3,2-d]pyrimidine-7-carboxylic acid {1-[1-(1-hydroxy-cyclopropyl)methanoyl]-piperidin-4-yl}-amide]
9.54 | COCC(=O)N1CCC(NC(=O)c2c[nH]c3c(-c4cc(C(C)=O)ccc4OCC4CC4)ncnc23)CC1 [Example 265, 4-(5-Acetyl-2-cyclopropylmethoxy-phenyl)-5H-pyrrolo[3,2-d]pyrimidine-7-carboxylic acid [1-(2-methoxy-acetyl)piperidin-4-yl]-amide]
9.46 | COCCNC(=O)[C@H]1CC[C@H](NC(=O)c2c[nH]c3c(-c4c(OCC5CCC5)ccc5c4OCO5)ncnc23)CC1 [Example 275, trans-4-(5-Cyclobutylmethoxy-benzo[1,3]dioxol-4-yl)-5H-pyrrolo[3,2-d]pyrimidine-7-carboxylic acid [4-(2-methoxy-ethylcarbamoyl)-cyclohexyl]-amide]
